Source: the supplement of paper PMC10307832

Legend:
Experiment in all cases: relative viability (nuclei count vs DMSO), 5 days (fraction); higher = more cells survive
Dabrafenib + Pictilisib = compound: CC(C)(C)c1nc(-c2cccc(NS(=O)(=O)c3c(F)cccc3F)c2F)c(-c2ccnc(N)n2)s1 [Dabrafenib] + CS(=O)(=O)N1CCN(Cc2cc3nc(-c4cccc5[nH]ncc45)nc(N4CCOCC4)c3s2)CC1 [Pictilisib] (partner 1 µM)
How it was run: (§1)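 Lung cancer cell lines in 1536-well plates were dosed by pin tool the day after seeding, either with one drug alone or with a fixed anchor-drug dose plus five library-drug doses (not always all listed) in √10 steps. After 5 days, cells were fixed and their nuclei stained in one step (final 0.05% Triton X-100, 1% formaldehyde, 1 ug/ml Hoechst), then counted on 4× images. Relative viability is the nuclei count in treated wells divided by that in vehicle wells. Values are medians of duplicate plates.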

Dabrafenib + Linsitinib = compound: CC(C)(C)c1nc(-c2cccc(NS(=O)(=O)c3c(F)cccc3F)c2F)c(-c2ccnc(N)n2)s1 [Dabrafenib] + C[C@]1(O)C[C@@H](c2nc(-c3ccc4ccc(-c5ccccc5)nc4c3)c3c(N)nccn32)C1 [Linsitinib] (partner 1 µM)
How it was run: as §1

Dabrafenib + OSI-027 = compound: CC(C)(C)c1nc(-c2cccc(NS(=O)(=O)c3c(F)cccc3F)c2F)c(-c2ccnc(N)n2)s1 [Dabrafenib] + COc1cccc2cc(-c3nc([C@H]4CC[C@H](C(=O)O)CC4)n4ncnc(N)c34)[nH]c12 [OSI-027] (partner 0.5 µM)
How it was run: as §1

Dabrafenib + Tozasertib = compound: CC(C)(C)c1nc(-c2cccc(NS(=O)(=O)c3c(F)cccc3F)c2F)c(-c2ccnc(N)n2)s1 [Dabrafenib] + Cc1cc(Nc2cc(N3CCN(C)CC3)nc(Sc3ccc(NC(=O)C4CC4)cc3)n2)n[nH]1 [Tozasertib] (partner 0.1 µM)
How it was run: as §1

Cell Line	relative viability (Dabrafenib + Pictilisib; first compound 0.003 µM)	relative viability (Dabrafenib + Pictilisib; first compound 0.009487 µM)	relative viability (Dabrafenib + Pictilisib; first compound 0.03 µM)	relative viability (Dabrafenib + Pictilisib; first compound 0.09487 µM)	relative viability (Dabrafenib + Pictilisib; first compound 0.3 µM)	relative viability (Dabrafenib + Linsitinib; first compound 0.003 µM)	relative viability (Dabrafenib + Linsitinib; first compound 0.009487 µM)	relative viability (Dabrafenib + Linsitinib; first compound 0.03 µM)	relative viability (Dabrafenib + Linsitinib; first compound 0.09487 µM)	relative viability (Dabrafenib + Linsitinib; first compound 0.3 µM)	relative viability (Dabrafenib + OSI-027; first compound 0.003 µM)	relative viability (Dabrafenib + OSI-027; first compound 0.009487 µM)	relative viability (Dabrafenib + OSI-027; first compound 0.03 µM)	relative viability (Dabrafenib + OSI-027; first compound 0.09487 µM)	relative viability (Dabrafenib + OSI-027; first compound 0.3 µM)	relative viability (Dabrafenib + Tozasertib; first compound 0.003 µM)	relative viability (Dabrafenib + Tozasertib; first compound 0.009487 µM)	relative viability (Dabrafenib + Tozasertib; first compound 0.03 µM)	relative viability (Dabrafenib + Tozasertib; first compound 0.09487 µM)	relative viability (Dabrafenib + Tozasertib; first compound 0.3 µM)
LXF-289	0.656	0.809	0.671	0.853	0.842	0.992	0.976	1.04	0.954	1.08	0.337	0.819	0.751	0.783	0.856	0.192	0.178	0.116	0.203	0.187
201T	0.665	0.711	0.607	0.65	0.71	0.918	1.07	0.941	1.03	1.05	0.306	0.786	0.642	0.656	0.808	1.02	0.915	0.918	0.912	1.04
NCI-H2023	0.171	0.271	0.207	0.283	0.267	0.639	0.667	0.595	0.715	0.792	0.325	0.455	0.385	0.355	0.395	0.376	0.382	0.35	0.321	0.356
NCI-H1437	0.385	0.478	0.481	0.46	0.702	1.03	0.989	1.07	0.974	1.07	0.926	0.849	1.04	0.922	0.878	0.496	0.385	0.412	0.409	0.416
HCC-827	1.07	1.13	0.89	–	1.03	0.905	0.964	0.96	0.998	0.974	0.586	0.955	0.744	–	0.657	0.426	0.457	0.383	–	0.377
HARA	0.327	0.629	0.325	0.399	0.605	0.973	0.869	0.841	0.905	1.3	0.262	0.618	–	0.327	0.864	0.101	0.116	–	0.115	0.113
NCI-H838	0.394	0.563	0.421	0.447	0.385	0.994	1.04	0.95	0.97	1.08	0.339	0.483	0.388	0.405	0.412	0.29	0.34	0.239	0.255	0.258
LCLC-103H	0.556	0.657	0.426	0.721	0.71	1.04	1.08	0.84	1.13	1.09	0.4	0.502	0.46	0.51	0.461	0.401	0.514	0.424	0.44	0.5
NCI-H2085	0.381	0.481	0.328	0.452	0.462	0.827	0.857	0.944	0.908	0.845	0.355	1.06	0.675	0.616	0.859	0.76	0.908	0.734	0.75	0.706
COR-L23	0.8	0.888	0.704	0.632	0.647	0.997	0.974	0.843	0.886	0.883	0.768	0.803	0.732	0.6	0.61	0.174	0.221	0.201	0.205	0.19
NCI-H322M	–	0.539	–	0.542	0.489	–	1.02	–	0.874	0.895	–	0.545	0.503	0.515	0.448	–	0.49	0.373	0.446	0.436
NCI-H1915	0.902	1.06	0.862	0.758	0.578	1.11	1.14	1.08	1.02	0.964	0.572	0.565	0.486	0.37	0.381	0.46	0.458	0.391	0.328	0.41
EPLC-272H	–	0.212	0.288	0.414	0.369	–	1.36	1.02	0.939	0.918	0.234	0.371	0.31	0.258	0.249	0.345	0.326	0.33	0.273	0.256
NCI-H1734	–	0.522	0.38	0.424	0.399	–	0.924	0.602	0.701	0.893	–	0.655	0.471	0.496	0.502	–	0.248	0.251	0.312	0.271
NCI-H2405	–	0.305	–	0.314	0.316	–	0.967	–	0.735	0.721	–	0.696	–	0.548	0.626	–	0.799	–	0.647	0.726
LK-2	0.552	0.614	–	0.587	0.748	0.587	0.875	0.225	0.381	0.53	0.174	0.238	0.155	0.248	0.206	0.182	0.174	–	0.174	0.152
NCI-H1666	0.473	–	0.474	0.387	0.448	0.841	–	0.846	1.03	0.931	0.805	0.869	0.833	0.797	0.968	0.562	0.637	0.678	0.672	0.672
